According to patent US20200308192A1, “NOVEL THIAZOLO[5,4-D]PYRIMIDINE DERIVATIVES AS INVERSE AGONISTS OF A2A ADENOSINE RECEPTORS” (Universita degli Studi di Ferrara, priority 2016, published 2020):
Read-outs that look alike come from different tables or passages of the source.

What was measured:
[1] = target: T1, human adenosine A3 receptor (Homo sapiens, UniProt P0DMS8); assay: Competition binding, [125I]-ABMECA, hA3 CHO membranes; conditions: mean ± SEM
T1 construct: expressed in transfected cells; host or cells: CHO cells (membrane preparation)
T1 sequence (P0DMS8 1-318): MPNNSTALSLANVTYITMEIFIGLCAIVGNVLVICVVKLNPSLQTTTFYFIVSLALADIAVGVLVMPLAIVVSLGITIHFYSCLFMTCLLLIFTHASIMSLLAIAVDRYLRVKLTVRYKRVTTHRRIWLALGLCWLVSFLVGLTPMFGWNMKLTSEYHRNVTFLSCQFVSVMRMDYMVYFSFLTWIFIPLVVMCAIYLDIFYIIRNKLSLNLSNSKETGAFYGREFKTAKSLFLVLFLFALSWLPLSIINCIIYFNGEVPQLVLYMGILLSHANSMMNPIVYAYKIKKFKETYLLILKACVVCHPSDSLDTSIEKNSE

Female CD1 mice [2] = assay: Writhing test (acetic acid-induced abdominal constrictions); format: in vivo; conditions: for ED50: Mus musculus, ip, 15 minutes before acetic acid; for Dose-response curve, Writhing Test: P<0.001, one-way ANOVA
Protocol: (§1) Female CD1 mice (22-24 g) were obtained from Charles River (Milano, Italia). The animals were kept under standard environmental temperature conditions (22±2° C.) and under moisture-controlled conditions with 12 hours light/dark cycle and food and water ad libitum. The animals were acclimated to the laboratory settings for at least 1 hour before testing and were used only once throughout the experiments. All the procedures used in the present study were carried out in accordance with the European Communities Council Directives (86/609/EEC) and the National Laws and Policies (D.L.116/92) after authorization from the Italian Ministry for Health (4/2014-B). In addition, the experimental procedures were in agreement with the current guidelines for the care of laboratory animals and the ethical guidelines for investigations of experimental pain in conscious animals (Couto M. Methods Mol Biol 2011; 770:579-599).
The acetic acid-induced writhing response was performed after intraperitoneal injection of 10 ml/Kg of 0.6% acetic acid solution. The response to the abdominal constrictions induced by acetic acid was evaluated after the intraperitoneal injection of 10 ml/kg of a 0.6% solution of acetic acid. The compounds under evaluation were dissolved in DMSO and then diluted in a saline solution. The carrier consists of saline solution and 5% of DMSO. A writhe is indicated by stretching of the abdomen followed by the extension of the hind limbs. The animals (8 mice per group) were placed singly in a glass cylinder and the number of writhing episodes of abdominal contractions was counted in a 30 minutes period. The compounds were administered intraperitoneally 15 minutes before injection of acetic acid solution.
(§2) The statistical analysis of the data was performed using ANOVA followed by Dunnett's test. […] KH and KL were obtained by using a two sites binding model and Graph PAD Prism (San Diego, Calif., USA). The values of IC50 obtained in the cAMP assays were calculated by non-linear regression analysis using the equation for a sigmoid concentration-response curve. All data are expressed as the mean±SEM of four independent experiments each performed in duplicate for in vitro assays and n=8-10 mice/group for in vivo assays.

Female CD1 mice [3] = assay: Warm-water tail immersion test; format: in vivo; conditions: intraperitoneal
Protocol: as §1
The warm-water tail immersion assay was performed using a water thermostated bath at a temperature maintained at 52° C. The compounds under evaluation were dissolved in DMSO and then diluted in saline solution. The carrier consists of saline solution and 5% of DMSO. Before intraperitoneally injecting the compound, the natural time of response of the mice was determined and the distal part of the tail was then immersed in the thermostated bath. The latency in responding to the heat stimulus with a vigorous flexion of the tail was measured by means of a manual stopwatch. A 20 seconds maximum cut-off time was imposed to prevent tissue damage. The latency of the tail withdrawal was then tested 15 minutes after injection of the compound.
as §2

[4] = target: T2, human adenosine A1 receptor (Homo sapiens, UniProt P30542); assay: Competition binding, [3H]-DPCPX, hA1 CHO membranes; conditions: read-out: Receptor hA1 Ki, mean ± SEM
T2 sequence (P30542 1-326): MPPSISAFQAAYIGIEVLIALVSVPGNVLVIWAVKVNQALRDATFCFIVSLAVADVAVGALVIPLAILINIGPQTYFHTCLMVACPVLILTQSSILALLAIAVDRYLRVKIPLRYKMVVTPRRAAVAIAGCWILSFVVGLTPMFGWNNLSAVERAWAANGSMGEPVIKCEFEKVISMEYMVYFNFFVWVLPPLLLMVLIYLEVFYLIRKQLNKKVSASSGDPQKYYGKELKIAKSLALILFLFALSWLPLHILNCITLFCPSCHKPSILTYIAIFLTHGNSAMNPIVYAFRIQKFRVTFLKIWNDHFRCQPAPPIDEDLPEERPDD

[5] = target: T3, human adenosine A2A receptor (Homo sapiens, UniProt P29274); assay: Competition binding, [3H]-ZM 241385, hA2A CHO membranes
T3 sequence (P29274 whole entry): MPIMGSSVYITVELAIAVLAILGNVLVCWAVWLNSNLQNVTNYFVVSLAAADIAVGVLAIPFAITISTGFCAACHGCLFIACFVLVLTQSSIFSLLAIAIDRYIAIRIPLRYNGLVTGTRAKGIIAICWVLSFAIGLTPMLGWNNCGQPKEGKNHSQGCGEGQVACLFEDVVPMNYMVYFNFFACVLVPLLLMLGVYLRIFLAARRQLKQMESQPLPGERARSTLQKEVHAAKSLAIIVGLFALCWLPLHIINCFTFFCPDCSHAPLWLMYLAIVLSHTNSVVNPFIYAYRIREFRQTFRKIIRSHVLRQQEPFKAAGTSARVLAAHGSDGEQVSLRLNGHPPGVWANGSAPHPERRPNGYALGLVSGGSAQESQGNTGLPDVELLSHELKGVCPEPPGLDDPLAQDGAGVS

[6] = target: T4, human adenosine A2B receptor (Homo sapiens, UniProt P29275); assay: cAMP assay, inhibition of NECA-stimulated cAMP levels in hA2B CHO cells; conditions: read-out: Receptor hA2B IC50; cAMP stimulated by NECA (100 nM); mean ± SEM
T4 sequence (P29275 1-332): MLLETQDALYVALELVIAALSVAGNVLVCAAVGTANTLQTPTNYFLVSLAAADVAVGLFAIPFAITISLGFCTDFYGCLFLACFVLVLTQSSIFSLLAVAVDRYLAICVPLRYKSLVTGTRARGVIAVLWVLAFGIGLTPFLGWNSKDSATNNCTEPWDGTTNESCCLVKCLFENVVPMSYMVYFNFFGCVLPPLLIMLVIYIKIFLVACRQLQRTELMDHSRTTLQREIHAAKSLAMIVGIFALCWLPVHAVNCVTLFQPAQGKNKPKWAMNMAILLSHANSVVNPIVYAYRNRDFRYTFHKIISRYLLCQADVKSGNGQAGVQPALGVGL

[7] = system: breast cancer cells MRMT-1; assay: Cell proliferation assay (DELFIA BrdU); format: cell-based; conditions: MRMT-1, compound 100 nM pre-treatment, CGS 21680 100 nM, 48 hours
From the text: For the experiments of cellular proliferation, the DELFIA® kit was used and a multimode plate reader Ensight® from PerkinElmer. The DELFIA® (dissociation-enhanced lanthanide fluorescence immunoassay) assay is based on Time-Resolved Fluorescence (TRF) and on the incorporation of the 5-bromo-2-deoxyuridine (BrdU) in the DNA filaments recently synthesised by the proliferating cells seeded on microplates. The incorporated BrdU is detected by using a monoclonal antibody conjugated with europium, a long-lived chelated lanthanide, and the fluorescence measured is proportional to the synthesis of DNA in the cells population present in each well. The MRMT-1 cells, breast cancer cells, were pre-treated with some of the antagonists under evaluation at the concentration of 100 nM (compounds 1, 5, 6, 7, 10 of the present invention) for 30 minutes, then stimulated with CGS 21680 100 nM and after 30 minutes the solution of BrdU (10 μl/well) was added. At the end of the incubation period of 48 hours 100 μl/well of Anti-BrdU-Eu (0.5 μg/ml) were added and the cells were incubated for 120 minutes at room temperature. After 4 washings, 200 μl of DELFIA® stimulator were added at room temperature for 15 minutes and the Eu-fluorescence was detected by means of the Ensight® reader from Perkin Elmer (Perkin Elmer, Milan, Italy).

[8] = target: T3, human adenosine A2A receptor; assay: cAMP assay in hA2A CHO cells, basal or with CGS 21680; format: cell-based; parameters: expressed in transfected cells; host or cells: CHO cells; conditions: for IC50: mean ± SEM
Protocol: For the membranes preparation the culture medium was removed, and the cells were washed with a saline phosphate-buffered solution collected with hypotonic buffer (5 mM Tris HCl, 1 mM EDTA, pH 7.4).
CHO cells transfected with the adenosine receptors were washed with a phosphate-buffered saline solution, detached with trypsin and centrifuged for 10 minutes at 200 g. […] The reaction was terminated by addition of cold 6% trichloroacetic acid (TCA). The TCA suspension was centrifuged at 2000 g for 10 minutes at 4° C. and the supernatant was extracted four times with diethyl ether with water. The final aqueous solution was tested for the cAMP levels by a competition protein binding assay with a cAMP-binding protein. The standard samples of cAMP (0-10 pmoli) were added to each test tube containing the incubation buffer (trizma base 0.1 M, aminophylline 8.0 mM, 2 mercaptoethanol 6.0 mM, pH 7.4) and [^3H]-cAMP. The binding protein previously prepared from beef adrenals, was added to the samples previously incubated at 4° C. for 150 minutes, and after the addition of charcoal were centrifuged at 2000 g for 10 min.
as §2

[9] = CGS 21680 (10 nM), read-out: IC50 cAMP, in presence of CGS 21680
[10] = CGS 21680 (10 nM), read-out: Emax cAMP, in presence of CGS 21680
[11] = basal cAMP, read-out: IC50 cAMP, in absence of CGS 21680
[12] = efficacy versus basal cAMP production, read-out: Emax cAMP, in absence of CGS 21680

SMILES	Ki [1] [nM]	ED50 (Female CD1 mice [2]; intraperitoneal) [mg/kg]	Dose-response curve, Writhing Test (Female CD1 mice [2])	ED50 times lower than ZM 241385, Writhing Test (Female CD1 mice [2]; intraperitoneal)	ED50 times lower than morphine, Writhing Test (Female CD1 mice [2]; intraperitoneal) [times]	ED50 (Female CD1 mice [3]; Mus musculus, ip, 0.25 h, 52° C., 15 minutes after injection) [mg/kg]	Anti-nociceptive activity, tail immersion test (Female CD1 mice [3])	Minimum effective dose, tail immersion test (Female CD1 mice [3]) [mg/kg]	Ki [4] [nM]	Ki [5] [nM]	IC50 [6] [nM]	Effect on CGS 21680-induced proliferation of cancer cells [7]	IC50 [8, 9] [nM]	Emax [8, 10] [%]	IC50 [8, 11] [nM]	Emax [8, 12] [%]
COc1ccccc1CNc1nc(N)c2nc(-c3ccco3)sc2n1 [Compound 1, 2-(furan-2-yl)-N^5-(2-methoxybenzyl)[1,3]thiazolo[5,4-d]pyrimidin-5,7-diamine]	36 ± 3	0.0328 ± 0.0021	dose-dependent effect	approximately 42 times	3.75	0.134 ± 0.011	highest analgesic activity	0.01	3.54 ± 0.32	6.45 ± 0.57	313 ± 29					
Nc1nc(NCc2ccco2)nc2sc(-c3ccco3)nc12 [Compound 5, 2-(furan-2-yl)-N^5-(furan-2-ylmethyl)[1,3]thiazolo[5,4-d]pyrimidin-5,7-diamine]	4.72 ± 0.38								38 ± 4	1.73 ± 0.15	82 ± 9	able to reduce the proliferation of cancer cells	0.04 ± 0.004	133 ± 13	0.0016 ± 0.0002	64
Nc1nc(NCc2cccs2)nc2sc(-c3ccco3)nc12 [Compound 6, 2-(furan-2-yl)-N^5-(thiophen-2-ylmethyl)[1,3]thiazolo[5,4-d]pyrimidin-5,7-diamine]	6.43 ± 8								12.5 ± 1.1	3.82 ± 0.31	75 ± 8	able to reduce the proliferation of cancer cells	0.036 ± 0.003	132 ± 12	0.0017 ± 0.0002	61
Nc1nc(NCc2cccnc2)nc2sc(-c3ccco3)nc12 [Compound 7, 2-(furan-2-yl)-N^5-(pyridin-3-ylmethyl)[1,3]thiazolo[5,4-d]pyrimidin-5,7-diamine]	18.2 ± 1.7								7.12 ± 0.65	0.68 ± 0.05	109 ± 11	able to reduce the proliferation of cancer cells	0.059 ± 0.006	126 ± 12	0.011 ± 0.001	61
Nc1nc(NCCc2cccs2)nc2sc(-c3ccco3)nc12 [Compound 10, 2-(furan-2-yl)-N^5-(2-(thiophen-2-yl)ethyl)[1,3]thiazolo[5,4-d]pyrimidin-5,7-diamine]	65 ± 6								4.92 ± 0.37	18 ± 2	112 ± 11	able to reduce the proliferation of cancer cells	0.045 ± 0.004	138 ± 13	0.0064 ± 0.0005	62
Nc1nc(NCCc2ccc(O)cc2)nc2nc(-c3ccco3)nn12 [ZM 241385, reference compound]	683 ± 64	1.37 ± 0.108	dose-dependent effect				no effect up to 10 mg/kg									
